These results are taken from patent US20140045746A1 (Merck Sharp & Dohme Corp., priority 2012, published 2014).

In assay [1] the target is T1, hGPR40 (Homo sapiens, UniProt O14842). Description: GPR40 Inositol Phosphate Turnover (IP1) Assay. The note with it: HEK cells stably expressing human GPR40; 0% serum; read-out: hGPR40 IP1 EC50 (0% serum). The arrangement: expressed in transfected cells; host or cells: HEK cells stably expressing the aequorin reporter. It counts as cell-based.
Protocol: A human GPR40 stable cell-line was generated in HEK cells stably expressing the aequorin expressing reporter.
The assay is performed in 96-well format. HEK cells stably expressing human GPR^40 are plated to be 60-80% confluent within 72 h. After 72 h, the plates are aspirated and the cells washed with inositol-free DMEM (ICN). The wash media is replaced with 150 μL of 3H-inositol labeling media (inositol-free media containing 0.4% human albumin or 0.4% mouse albumin, 1× pen/strep antibiotics, glutamine, 25 mM HEPES to which is added 3H-myo-inositol NEN #NET114A 1mCi/mL, 25 Ci/mmol diluted 1:150 in loading media with a final specific radioactivity of 1 μCi/150 μL). Alternatively, the human and mouse albumin can be added after the overnight labeling step before the addition of LiCl.
The assay is typically run the next day after 18 h labeling. On the day of the assay, 5 μL, of 300 mM LiCl is added to all wells and incubated at 37 degrees for 20 min. 0.75 μL of 200× compounds are added and incubated with the cells for 60 min at 37 degrees. The media is then aspirated off and the assay terminated with the addition of 60 nI, 10 mM formic acid. The cells are lysed for 60 min at room temperature. 15-30 nI, of lysate is mixed with 70 mL/1 mg YSi SPA beads (Amersham) in clear bottom Isoplates. The plates are shaken for 2 h at room temperature. Beads are allowed to settle and the plates are counted in the Wallac Microbeta.
Assay [2] has as its target T1, hGPR40. Description: GPR40 FLIPR assay (agonist-induced calcium mobilization).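 Also: calcium mobilization in the cells read as fluorescence of fluo-4 AM loaded cells on FLIPR after compound addition, cells preloaded with dye 100 min at room temperature.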 To be noted: GPR40/CHO NFAT BLA cells. It counts as cell-based. On the set-up: expressed in transfected cells; host or cells: CHO cells stably expressing NFAT BLA (beta-lactamase). (A change in cytosolic calcium serves as a functional read-out for many receptors and channels.)

The EC50 is the concentration that produces a half-maximal response.

T1 sequence (O14842 whole entry): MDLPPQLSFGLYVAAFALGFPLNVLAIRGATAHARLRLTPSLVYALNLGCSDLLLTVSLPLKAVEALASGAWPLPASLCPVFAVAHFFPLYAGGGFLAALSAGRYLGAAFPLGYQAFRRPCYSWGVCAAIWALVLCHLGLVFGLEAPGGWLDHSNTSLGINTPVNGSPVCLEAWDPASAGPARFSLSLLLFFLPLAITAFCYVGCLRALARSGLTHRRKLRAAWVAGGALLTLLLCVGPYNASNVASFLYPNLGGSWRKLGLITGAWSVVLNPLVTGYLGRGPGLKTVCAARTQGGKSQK

For `CO/N=C(\C)CCCOc1ccc(-c2cccc(COc3cc4c(cn3)[C@H]3[C@@H](C4)[C@@H]3C(=O)O)c2)c(C)c1` [Compound 17-6, (5aR,6S,6aS)-3-((4′-(((E)-4-(methoxyimino)pentyl)oxy)-2′-methyl-[1,1′-biphenyl]-3-yl)methoxy)-5,5a,6,6a-tetrahydro-cyclopropa [4,5]cyclopenta [1,2-c]pyridine-6-carboxylic acid], the figures for the EC50 on hGPR40 [1] and at hGPR40 [2] were 29 nM and 13 nM, respectively.
For `Cc1cc(OCCCN2CC(F)(F)C2)cc(C)c1-c1cccc(COc2cc3c(cn2)[C@H]2[C@@H](C3)[C@@H]2C(=O)O)c1` [Compound 18-4, (5aR,6S,6aS)-3-((4′-(3-(3,3-difluoroazetidin-1-yl)propoxy)-2′,6′-dimethyl-[1,1′-biphenyl]-3-yl)methoxy)-5,5a,6,6a-tetrahydrocyclopropa[4,5]cyclopenta[1,2-c]pyridine-6-carboxylic acid], the values for the EC50 on hGPR40 [1] and at hGPR40 [2] were 26 nM and 16 nM, respectively.
For `Cc1cc(CCC(C)(C)O)cc(C)c1-c1ccc(F)c(COc2cc3c(cn2)[C@H]2[C@@H](C3)[C@@H]2C(=O)O)c1` [Compound 19-6, (5aR,6S,6aS)-3-((4-fluoro-4′-(3-hydroxy-3-methylbutyl)-2′,6′-dimethyl-[1,1′-biphenyl]-3-yl)methoxy)-5,5a,6,6a-tetrahydrocyclopropa[4,5]cyclopenta[1,2-c]pyridine-6-carboxylic acid], the values for the EC50 at hGPR40 [1] and at hGPR40 [2] were 4 nM and 20 nM, respectively.
`Cc1cc(CCCCS(C)(=O)=O)cc(C)c1-c1ccc(F)c(COc2cc3c(cn2)[C@H]2[C@@H](C3)[C@@H]2C(=O)O)c1` [Compound 19-16, (5aR,6S,6aS)-3-((4-fluoro-2′,6′-dimethyl-4′-(4-(methylsulfonyl)butyl)-[1,1′-biphenyl]-3-yl)methoxy)-5,5a,6,6a-tetrahydrocyclopropa[4,5]cyclopenta[1,2-c]pyridine-6-carboxylic acid]: the EC50 was 7.3 nM at hGPR40 [1] and 160 nM on hGPR40 [2].
Turning to `Cc1cc(CCCC(C)(C)O)cc(C)c1-c1ccc(F)c(COc2cc3c(cn2)[C@H]2[C@@H](C3)[C@@H]2C(=O)O)c1` [Compound 19-19, (5aR,6S,6aS)-3-((4-fluoro-4′-(4-hydroxy-4-methylpentyl)-2′,6′-dimethyl-[1,1′-biphenyl]-3-yl)methoxy)-5,5a,6,6a-tetrahydrocyclopropa[4,5]cyclopenta[1,2-c]pyridine-6-carboxylic acid], the EC50 stood at 5.5 nM on hGPR40 [1] and 36 nM on hGPR40 [2].
In the same order, the values of `CC(C)(O)CCOc1cc(C(F)(F)F)c(-c2ccc(F)c(COc3cc4c(cn3)C3C(C4)C3C(=O)O)c2)cn1` (centres unmarked) [Compound 20-5, 3-((2-fluoro-5-(6-(3-hydroxy-3-methylbutoxy)-4-(trifluoromethyl)pyridin-3-yl)benzyl)oxy)-5,5a,6,6a-tetrahydrocyclopropa[4,5]cyclopenta[1,2-c]pyridine-6-carboxylic acid] are 15 nM and 76 nM.
For `CC(C)(O)CCOc1cc(C(F)(F)F)c(-c2cccc(COc3cc4c(cn3)[C@H]3[C@@H](C4)[C@@H]3C(=O)O)c2)cn1` [Compound 20-6, (5aR,6S,6aS)-3-((3-(6-(3-hydroxy-3-methylbutoxy)-4-(trifluoromethyl)pyridin-3-yl)benzyl)oxy)-5,5a,6,6a-tetrahydro-cyclopropa[4,5] cyclopenta[1,2-c] pyridine-6-carboxylic acid] the same measures were 4.9 nM and 19 nM.
In the same order, the values of `Cc1nc(OC2CCC(C(C)(C)O)CC2)ccc1-c1ccc(F)c(COc2cc3c(cn2)[C@H]2[C@@H](C3)[C@@H]2C(=O)O)c1` (stereo partly drawn) [Compound 20-8, (5aR,6S,6aS)-3-((2-fluoro-5-(6-((4-(2-hydroxypropan-2-yl)cyclohexyl)oxy)-2-methyl-pyridin-3-yl)benzyl)oxy)-5,5a, 6,6a-tetrahydro-cyclopropa[4,5] cyclopenta[1,2-c] pyridine-6-carboxylic acid] are 175 nM and 99 nM.
`CC(C)(O)CCCOc1cc(C(F)(F)F)c(-c2ccc(F)c(COc3cc4c(cn3)[C@H]3[C@@H](C4)[C@@H]3C(=O)O)c2)cn1` [Compound 21-7, 3-((2-fluoro-5-(6-((4-hydroxy-4-methylpentyl)oxy)-4-(trifluoromethyl)pyridin-3-yl)benzyl)oxy)-5,5a,6,6a-tetrahydrocyclopropa[4,5]cyclopenta[1,2-c]pyridine-6-carboxylic acid]: the EC50 at hGPR40 [1] turned out to be 6.2 nM; on hGPR40 [2] it was 11 nM.
In the same order, the values of `CC(C)(O)CCCOc1cc(C(F)(F)F)c(-c2cccc(COc3cc4c(cn3)[C@H]3[C@@H](C4)[C@@H]3C(=O)O)c2)cn1` [Compound 21-8, (5aR,6S,6aS)-3-((3-(6-((4-hydroxy-4-methylpentyl)-oxy)-4-(trifluoromethyl)-pyridin-3-yl)benzyl)oxy)-5,5a,6,6a-tetrahydrocyclo-propa[4,5]cyclopenta [1,2-c]pyridine-6-carboxylic acid] are 6.2 nM and 15 nM.
For `Cc1cccc(C)c1-c1ccc(F)c(COc2cc3c(cn2)[C@H]2[C@@H](C3)[C@@H]2C(=O)O)c1` [Compound 22-2], the results for the EC50 on hGPR40 [1] and on hGPR40 [2] were 26 nM and 49 nM, respectively.
For `O=C(O)C1C2Cc3cc(OCc4cc(-c5ccccc5C(F)(F)F)ccc4F)ncc3C21` (centres unmarked) [Compound 22-3, 3-((4-fluoro-2′-(trifluoromethyl)-[1,1′-biphenyl]-3-yl)methoxy)-5,5a,6,6a-tetrahydrocyclo-propa[4,5]cyclopenta[1,2-c]pyridine-6-carboxylic acid] the same measures were 35 nM and 36 nM.
For `O=C(O)C1C2Cc3cc(OCc4cc(-c5ccc(C(F)(F)F)cc5)ccc4F)ncc3C21` (centres unmarked) [Compound 22-4, 3-((4-fluoro-4′-(trifluoromethyl)-[1,1′-biphenyl]-3-yl)methoxy)-5,5a,6,6a-tetrahydrocyclo-propa[4,5]cyclopenta[1,2-c]pyridine-6-carboxylic acid] the same measures were 240 nM and 54 nM.
For `O=C(O)C1C2Cc3cc(OCc4cc(-c5cccc(C(F)(F)F)c5)ccc4F)ncc3C21` (centres unmarked) [Compound 22-5, 3-((4-fluoro-3′-(trifluoromethyl)-[1,1′-biphenyl]-3-yl)methoxy)-5,5a,6,6a-tetrahydrocyclo-propa[4,5]cyclopenta[1,2-c]pyridine-6-carboxylic acid] the same measures were 310 nM and 47 nM.
Take `O=C(O)C1C2Cc3cc(OCc4cc(-c5c(F)cccc5C(F)(F)F)ccc4F)ncc3C21` (centres unmarked) [Compound 22-6, 3-((2′,4-difluoro-6′-(trifluoromethyl)-[1,1′-biphenyl]-3-yl)methoxy)-5,5a,6,6a-tetrahydrocyclo-propa[4,5]cyclopenta[1,2-c]pyridine-6-carboxylic acid]: the EC50 on hGPR40 [1] amounted to 100 nM; on hGPR40 [2] it was 87 nM.
In the same order, the values of `O=C(O)C1C2Cc3cc(OCc4cc(-c5cc(Cl)cc(C(F)(F)F)c5)ccc4F)ncc3C21` (centres unmarked) [Compound 22-7, 3-((3′-chloro-4-fluoro-5′-(trifluoromethyl)-[1,1′-biphenyl]-3-yl)methoxy)-5,5a,6,6a-tetrahydrocyclo-propa[4,5]cyclopenta[1,2-c]pyridine-6-carboxylic acid] are 400 nM and 67 nM.
In the same order, the values of `O=C(O)C1C2Cc3cc(OCc4cc(-c5cccnc5C(F)(F)F)ccc4F)ncc3C21` (centres unmarked) [Compound 22-8, 3-((2-fluoro-5-(2-(trifluoromethyl)pyridin-3-yl)benzyl)oxy)-5,5a,6,6a-tetrahydrocyclopenta[4,5] cyclopenta[1,2-c]pyridine-6-carboxylic acid] are 75 nM and 48 nM.
For `O=C(O)C1C2Cc3cc(OCc4cc(-c5ncccc5C(F)(F)F)ccc4F)ncc3C21` (centres unmarked) [Compound 22-9, 3-((2-fluoro-5-(3-(trifluoromethyl)pyridin-2-yl)benzyl)oxy)-5,5a,6,6a-tetrahydrocyclopropa[4,5] cyclopenta[1,2-c]pyridine-6-carboxylic acid] the same measures were 850 nM and 95 nM.
Take `Cc1cc(OCCCS(C)(=O)=O)ncc1-c1ccc(F)c(COc2cc3c(cn2)[C@H]2[C@@H](C3)[C@@H]2C(=O)O)c1` [Compound 23-8, 4-{2-Fluoro-5-[6-(3-methanesulfonyl-propoxy)-4-methyl-pyridin-3-yl]-benzyloxy}-1,1a,6,6a-tetrahydro-3-aza-cyclopropa[a]indene-1-carboxylic acid]: the EC50 on hGPR40 [1] was 4.8 nM; on hGPR40 [2] it was 26 nM.
As for `Cc1nc(OCCCS(C)(=O)=O)ccc1-c1ccc(F)c(COc2cc3c(cn2)[C@H]2[C@@H](C3)[C@@H]2C(=O)O)c1` [Compound 23-10, (5aR,6S,6aS)-3-((2-fluoro-5-(2-methyl-6-(3-(methylsulfonyl)propoxy)pyridin-3-yl)benzyl)oxy)-5,5a,6,6a-tetrahydro-cyclopropa[4,5] cyclopenta[1,2-c] pyridine-6-carboxylic acid], the EC50 at hGPR40 [1] came to 15 nM; at hGPR40 [2] it was 46 nM.
As to `Cc1cc(OCCCS(C)(=O)=O)nc(C)c1-c1cccc(COc2cc3c(cn2)[C@H]2[C@@H](C3)[C@@H]2C(=O)O)c1` [Compound 23-11, (5aR,6S,6aS)-3-((3-(2,4-dimethyl-6-(3-(methylsulfonyl)propoxy)pyridin-3-yl)benzyl)oxy)-5,5a, 6,6a-tetrahydrocyclo propa[4,5]cyclopenta [1,2-c]pyridine-6-carboxylic acid], the EC50 at hGPR40 [1] came to 25 nM; at hGPR40 [2] it was 50 nM.
In the same order, the values of `Cc1cc(OCCCS(C)(=O)=O)nc(C)c1-c1ccc(F)c(COc2cc3c(cn2)[C@H]2[C@@H](C3)[C@@H]2C(=O)O)c1` [Compound 23-12, (5aR,6S,6aS)-3-((5-(2,4-dimethyl-6-(3-(methylsulfonyl)propoxy)pyridin-3-yl)-2-fluorobenzyl)oxy)-5,5a,6,6a-tetrahydrocyclopropa [4,5]cyclopenta[1,2-c] pyridine-6-carboxylic acid] are 12 nM and 35 nM.
